Reference: patent US11162951B2, “Membrane-impermeant fluorogenic chromophores” (PARIS SCIENCES ET LETTRES, priority 2017, dated 2021)
pKd: −log10 of the molar value. “And” between values parts separate entries of the source, which are not always exact repeats. Equal entries are not always repeated. “Also recorded” adds a separate entry of the source.

Legend:
[1] = test system: HeLa cells displaying FAST on the extracellular side (Ig κ-chain leader / PDGFR transmembrane domain); test: Selective labeling of cell-surface FAST-tagged proteins, confocal imaging; type: cell-based; details: for Localisation of fluorescent labeling of FAST-tagged protein: 5 min
Procedure: (§1) The plasmid pAG211 for mammalian expression of FAST (fused also to mCherry as additional transfection marker) at the outer plasma membrane was obtained by inserting the sequence coding the protein of interest within the pDisplay plasmid (ThermoFisher) using Sal I and Bgl II restriction sites. The plasmid pAG96 for cytoplasmic expression of FAST fused to mCherry was previously reported (Plamont, M.-A. et al., 2016).
(§2) HeLa cells were cultured in DMEM supplemented with phenol red, Glutamax I, 10% (vol/vol) fetal calf serum (FCS), and 1% penicillin-streptomycin at 37° C. within a 5% CO2 atmosphere. For microscopic imaging, cells were seeded in μDish or μSlide IBIDI (Biovalley) coated with poly-L-lysine. Cells were transiently transfected using Genejuice (Merck) according to the manufacturer's protocol. Before imaging, cells were washed with PBS, and treated with DMEM media (without serum and phenol red) containing the fluorogens at the indicated concentration. Cells were imaged directly without washing.
(§3) Confocal micrographs were acquired on a Zeiss LSM 710 Laser Scanning Microscope equipped with a Plan Apochromat 63×/1.4 NA oil immersion objective. ZEN software was used to collect the data. Images were analyzed with Image J. Flow cytometry analyses were performed on an Accuri C6 cytometer (BD Biosciences).
Next, the use of HBRAA-3E for the selective labeling of cell-surface FAST-tagged proteins was studied. A polypeptide was engineered comprising a FAST in between a murine Ig κ-chain leader sequence and the platelet derived growth factor receptor (PDGFR) transmembrane domain. FAST was fused at the […] of the PDGFR transmembrane domain, which anchors the protein to the plasma membrane. The resulting FAST-tagged protein was expressed transiently in HeLa cells.

[2] = molecular target: T1, FAST (variant of the photoactive yellow protein (PYP), SEQ ID NO: 3) (Halorhodospira halophila, UniProt P16113, C69G/D97P/F96I/M100R/Q99S/T101G/T95M/Y94W/Y98T); test: Physico-chemical (absorption/fluorescence) properties of FAST:fluorogen complexes; type: physicochemical; details: for Brightness (ε×ϕ) / ε, molar absorption coefficient at λabs / λabs, wavelength of maximal absorption / λem, wavelength of maximal emission / ϕ, fluorescence quantum yield: FAST:fluorogen complex in PBS pH 7.4
T1 construct: His tag; made in house; host or cells: Rosetta(DE3)pLysS E. coli
T1 sequence (P16113 whole entry C69G/Y94W/T95M/F96I/D97P/Y98T/Q99S/M100R/T101G): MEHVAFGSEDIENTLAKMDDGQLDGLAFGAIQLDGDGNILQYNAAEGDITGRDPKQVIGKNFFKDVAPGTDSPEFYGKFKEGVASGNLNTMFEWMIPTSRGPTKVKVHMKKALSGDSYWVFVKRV
Procedure: In an embodiment, the fluorescence quantum yields after one-photon excitation ϕ are calculated from the relation: […]
Methods for measuring the brightness are well-known in the art. Brightness corresponds to the fluorescence output per emitter and is the product of the molar absorption coefficient (at the excitation wavelength) and the fluorescence quantum yield.
(§4) His-tagged FAST was expressed in Rosetta(DE3)pLysS E. coli (New England Biolabs). Cells were grown at 37° C. in Lysogeny Broth (LB) medium to OD600 nm 0.6. Expression was induced for 4 h by adding isopropyl β-D-1-thiogalactopyranoside (IPTG) to a final concentration of 1 mM. Cells were harvested by centrifugation (6,000×g for 15 min at 4° C.) and frozen. The cell pellet was resuspended in lysis buffer (phosphate buffer 50 mM, NaCl 150 mM, MgCl2 2.5 mM, protease inhibitor, DNase, pH 7.4) and sonicated (5 min at 20% of amplitude). The lysate was incubated for 2 h at 4° C. to allow DNA digestion by DNase. Cellular fragments were removed by centrifugation (15,000×g for 1 h at 4° C.). The supernatant was incubated overnight at 4° C. under gentle agitation with Ni-NTA agarose beads in phosphate buffered saline (PBS) (sodium phosphate 50 mM, NaCl 150 mM, pH 7.4) complemented with 10 mM Imidazole. Beads were washed with 20 volumes of PBS containing 20 mM Imidazole, and with 5 volumes of PBS complemented with 40 mM Imidazole. His-tagged proteins were eluted with 5 volumes of PBS complemented with 0.5 M Imidazole, followed by dialysis with PBS.
(§5) UV/Vis absorption spectra were recorded in 1 cm×1 cm quartz cuvettes (Hellma) on a diode array UV/Vis spectrophotometer (Evolution array, Thermo Scientific). Corrected fluorescence spectra upon one-photon excitation were recorded with a Photon Technology International QuantaMaster QM-1 spectrofluorimeter (PTI, Monmouth Junction, N.J.) equipped with a Peltier cell holder (TLC50, Quantum Northwest, Shoreline, Wash.).
(§6) Physico-chemical properties of FAST:fluorogen complexes in PBS pH 7.4 are described in Table 2 below: λabs, wavelength of maximal absorption; λem, wavelength of maximal emission; ε, molar absorption coefficient at λabs; ϕ, fluorescence quantum yield; KD affinity constant. The brightness is equal to ε×ϕ.

[3] = test system: HeLa cells expressing FAST fused to mCherry in the cytoplasm; test: Cell exclusion after prolonged exposure, confocal imaging; type: cell-based; details: 5 μM, two hours, cytoplasmic FAST-mCherry
Procedure: as §1, §2, §3
Cell exclusion after prolonged exposure was then evaluated. […]

[4] = molecular target: T1, FAST (variant of the photoactive yellow protein (PYP), SEQ ID NO: 3); test: biochemical; type: binding; details: for pKd: KD affinity constant, FAST:fluorogen complex in PBS pH 7.4
Procedure: In an embodiment, the thermodynamic dissociation constant KD is determined by spectrofluorometric titration as described in the Examples.
as §4, §5, §6

Question: What does the source list for `CCc1cc(/C=C2\SC(=S)N(CC(=O)O)C2=O)ccc1O` [HBRAA-3E, (Z)-2-(5-(3-ethyl-4-hydroxybenzylidene)-4-oxo-2-thioxothiazolidin-3-yl)acetic acid]?
Answer: Localisation of fluorescent labeling of FAST-tagged protein ([1]; 5 μM): fluorescent labeling only at the plasma membrane; also recorded: revealed only surface-exposed proteins; Intracellular labeling upon longer incubation ([1]; 5 μM, 1 h): no intracellular labeling; Red shift in absorption compared to FAST:HMBR [2]: 25 nm; Red shift in emission compared to FAST:HMBR [2]: 20 nm; Brightness (ε×ϕ) [2]: about 4,900; ε, molar absorption coefficient at λabs [2]: 61 mM⁻¹ cm⁻¹; λabs, wavelength of maximal absorption [2]: 505 nm; λem, wavelength of maximal emission [2]: 559 nm; ϕ, fluorescence quantum yield [2]: 8%; Brightness (ε×ϕ) ([2]; listed as FAST:HBRAA-3E): 4,900; Intracellular labeling (cell exclusion) [3]: no intracellular labeling; pKd [4]: ~5.89 and 5.89

Question: For `Cc1cc(/C=C2\SC(=S)N(CC(=O)O)C2=O)c(C)cc1O` [HBRAA-2,5DM, (Z)-2-(5-(4-hydroxy-2,5-dimethylbenzylidene)-4-oxo-2-thioxothiazolidin-3-yl)acetic acid], which “Brightness (ε×ϕ)” value [2] is on record?
Answer: 3,200

Question: What about the “ε, molar absorption coefficient at λabs” value [2] of the same molecule?
Answer: 63 mM⁻¹ cm⁻¹

Question: And the “λabs, wavelength of maximal absorption” value [2]?
Answer: 519 nm

Question: And the “λem, wavelength of maximal emission” value [2]?
Answer: 566 nm

Question: And the “ϕ, fluorescence quantum yield” value [2]?
Answer: 5%

Question: What about the “Affinity for FAST, in words” value [4] of the same molecule?
Answer: none of the complexes formed by di-substituted compounds HBRAA-2,5DM, HBRAA-3,5DM and HBRAA-3,5DMO has an affinity higher than the one of HBRAA-3M

Question: What about the pKd [4] of the same molecule?
Answer: 5.27

Question: With `Cc1cc(/C=C2\SC(=S)N(CC(=O)O)C2=O)cc(C)c1O` [HBRAA-3,5DM, (Z)-2-(5-(4-hydroxy-3,5-dimethylbenzylidene)-4-oxo-2-thioxothiazolidin-3-yl)acetic acid] as the molecule, how does the “λabs, wavelength of maximal absorption” value [2] read?
Answer: 522 nm

Question: What about the “λem, wavelength of maximal emission” value [2] of the same molecule?
Answer: 571 nm

Question: What about the “ϕ, fluorescence quantum yield” value [2] of the same molecule?
Answer: 4%

Question: And the “Affinity for FAST, in words” value [4]?
Answer: none of the complexes formed by di-substituted compounds HBRAA-2,5DM, HBRAA-3,5DM and HBRAA-3,5DMO has an affinity higher than the one of HBRAA-3M

Question: What about the pKd [4] of the same molecule?
Answer: < 4.70

Question: Which results are given for `COc1cc(/C=C2\SC(=S)N(CC(=O)O)C2=O)cc(OC)c1O` [HBRAA-3,5DOM, (Z)-2-(5-(4-hydroxy-3,5-dimethoxybenzylidene)-4-oxo-2-thioxothiazolidin-3-yl)acetic acid]?
Answer: λabs, wavelength of maximal absorption [2]: 532 nm; λem, wavelength of maximal emission [2]: 606 nm; ϕ, fluorescence quantum yield [2]: 1%; Affinity for FAST, in words [4]: none of the complexes formed by di-substituted compounds HBRAA-2,5DM, HBRAA-3,5DM and HBRAA-3,5DMO has an affinity higher than the one of HBRAA-3M; pKd [4]: < 4.70

Question: `Cc1cc(/C=C2\SC(=S)NC2=O)ccc1O` [HMBR, 4-hydroxy-3-methylbenzylidene rhodanine, reference compound] was tested. Which “Localisation of fluorescent labeling of FAST-tagged protein” value ([1]; 5 μM) did it give?
Answer: labeling of FAST-tagged proteins both at the membrane and within the secretory pathway; also recorded: revealed membrane and intracellular proteins

Question: And the “Labeling after subsequent addition to cells pre-treated 1 h with HBRAA-3E” value ([1]; immediate imaging (<10 s))?
Answer: revealed proteins within the secretory pathway

Question: How did the “Brightness (ε×ϕ)” value [2] turn out when `Cc1cc(/C=C2\SC(=S)N(CC(=O)O)C2=O)ccc1O` [HBRAA-3M, (Z)-2-(5-(4-hydroxy-3-methylbenzylidene)-4-oxo-2-thioxothiazolidin-3-yl)acetic acid] was run?
Answer: 3,400

Question: What about the “ε, molar absorption coefficient at λabs” value [2] of the same molecule?
Answer: 56 mM⁻¹ cm⁻¹

Question: And the “λabs, wavelength of maximal absorption” value [2]?
Answer: 502 nm

Question: What about the “λem, wavelength of maximal emission” value [2] of the same molecule?
Answer: 557 nm

Question: What about the “ϕ, fluorescence quantum yield” value [2] of the same molecule?
Answer: 6%

Question: And the “Brightness compared with FAST:HMBR” value ([2]; in words)?
Answer: three-fold lower brightness

Question: And the pKd [4]?
Answer: 5.19

Question: What does the source list for `CCOc1cc(/C=C2\SC(=S)N(CC(=O)O)C2=O)ccc1O` [HBRAA-3OE, (Z)-2-(5-(4-hydroxy-3-ethoxybenzylidene)-4-oxo-2-thioxothiazolidin-3-yl)acetic acid]?
Answer: Brightness (ε×ϕ) [2]: about 3,700; ε, molar absorption coefficient at λabs [2]: 62 mM⁻¹ cm⁻¹; λabs, wavelength of maximal absorption [2]: 525 nm; λem, wavelength of maximal emission [2]: 575 nm; ϕ, fluorescence quantum yield [2]: 6%; Brightness (ε×ϕ) ([2]; listed as FAST:HBRAA-3OE): 3,700; Shift of absorption and emission of the FAST complex compared with HBRAA-3E ([2]; in words): further red-shifted the absorption and the emission; pKd [4]: 5.77

Question: `O=C1NC(=S)S/C1=C\c1ccc(O)cc1` [HBR, 4-hydroxybenzylidene rhodanine, reference compound] was tested. Which “Brightness (ε×ϕ)” value [2] did it give?
Answer: 4,000

Question: And the “ε, molar absorption coefficient at λabs” value [2]?
Answer: 44 mM⁻¹ cm⁻¹

Question: What about the “λabs, wavelength of maximal absorption” value [2] of the same molecule?
Answer: 467 nm

Question: What about the “λem, wavelength of maximal emission” value [2] of the same molecule?
Answer: 527 nm

Question: What about the “ϕ, fluorescence quantum yield” value [2] of the same molecule?
Answer: 9%

Question: Which “λabs, wavelength of maximal absorption” value [2] does the source give for `COc1cc(/C=C2\SC(=S)N(CC(=O)O)C2=O)ccc1O` [HBRAA-3OM, (Z)-2-(5-(4-hydroxy-3-methoxybenzylidene)-4-oxo-2-thioxothiazolidin-3-yl)acetic acid] here?
Answer: 520 nm

Question: And the “λem, wavelength of maximal emission” value [2]?
Answer: 572 nm

Question: And the “ϕ, fluorescence quantum yield” value [2]?
Answer: 2%

Question: What about the “Affinity for FAST, in words” value [4] of the same molecule?
Answer: almost no affinity with FAST

Question: What about the pKd [4] of the same molecule?
Answer: < 4.70

Question: Which results are given for `COc1cc(O)ccc1/C=C1\SC(=S)N(CC(=O)O)C1=O` [HBRAA-2OM, (Z)-2-(5-(4-hydroxy-2-methoxybenzylidene)-4-oxo-2-thioxothiazolidin-3-yl)acetic acid]?
Answer: Brightness (ε×ϕ) [2]: about 2,800; ε, molar absorption coefficient at λabs [2]: 55 mM⁻¹ cm⁻¹; λabs, wavelength of maximal absorption [2]: 497 nm; λem, wavelength of maximal emission [2]: 537 nm; ϕ, fluorescence quantum yield [2]: 5%; Brightness (ε×ϕ) ([2]; listed as FAST:HBRAA-2OM): 2,800; pKd [4]: 6.30 and 6.32

Question: Which “λabs, wavelength of maximal absorption” value [2] does the source give for `O=C(O)CN1C(=O)/C(=C/c2ccc(O)cc2)SC1=S` [HBRAA, (Z)-2-(5-(4-hydroxybenzylidene)-4-oxo-2-thioxothiazolidin-3-yl)acetic acid] here?
Answer: 488 nm

Question: What about the “λem, wavelength of maximal emission” value [2] of the same molecule?
Answer: 555 nm

Question: What about the “Affinity for FAST, in words” value [4] of the same molecule?
Answer: almost no affinity for FAST

Question: And the pKd [4]?
Answer: < 4.70
